Source: the supplement of paper PMC11061612

How the values were obtained:
[1] = system: A375 (Melanoma); test: Bliss excess, mean over the matrix (fraction); higher = more synergy
Method in brief: (§1)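 Cell lines in DMEM/F12 or RPMI with 10% FBS were plated in 1536-well plates, held 24 hours at 37°C, 5% CO2, then given two-drug dose matrices for 72 hours (DMSO typically 0.2%). Viability was read by CellTiter-Glo 2.0 luminescence and scaled as inhibition from 0 (vehicle wells) to 1 (blank wells). Combination Emax is the second-highest inhibition in the matrix; Bliss excess is observed combination effect minus expected EA + EB − EA·EB, EA and EB being single-agent effects.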

[2] = system: ATN-1 (T-Lymphoblastic Leukemia); test: as above
Method in brief: as §1

[3] = system: BC-1 (B-Cell Non-Hodgkin's Lymphoma); test: as above
Method in brief: as §1

[4] = system: C32 (Melanoma); test: as above
Method in brief: as §1

[5] = system: HT-3 (Cervical Carcinoma); test: as above
Method in brief: as §1

[6] = system: IGROV-1 (Ovarian Carcinoma); test: as above
Method in brief: as §1

[7] = system: KNS-62 (Squamous Cell Lung Carcinoma); test: as above
Method in brief: as §1

[8] = system: NCI-H1435 (Non-Small Cell Lung Carcinoma); test: as above
Method in brief: as §1

[9] = system: NCI-H2023 (Non-Small Cell Lung Carcinoma); test: as above
Method in brief: as §1

[10] = system: OCI-M1 (Acute Myeloid Leukemia); test: as above
Method in brief: as §1

[11] = system: SBC-5 (Small Cell Lung Carcinoma); test: as above
Method in brief: as §1

[12] = system: SK-N-DZ (Neuroblastoma); test: as above
Method in brief: as §1

[13] = system: A375 (Melanoma); test: combination Emax (second highest fraction inhibited in the dose matrix, 72 h); higher = more inhibition; extreme values may be limits of the assay
Method in brief: as §1

[14] = system: C32 (Melanoma); test: as above
Method in brief: as §1

[15] = system: HT-144 (Melanoma); test: as above
Method in brief: as §1

[16] = system: MG-63 (Osteosarcoma); test: as above
Method in brief: as §1

[17] = system: NCI-H2009 (Lung Adenocarcinoma); test: as above
Method in brief: as §1

[18] = system: RPMI-8402 (T-Lymphoblastic Leukemia); test: as above
Method in brief: as §1

[19] = system: SNU-1 (Gastric Carcinoma); test: as above
Method in brief: as §1

[20] = system: SUP-HD1 (Hodgkin's Lymphoma); test: as above
Method in brief: as §1
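Throughout, for Bliss excess, mean over the matrix: after 72 h of two-drug dosing.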

CN(CCO)CC[C@H](CSc1ccccc1)Nc1ccc(S(=O)(=O)NC(=O)c2ccc(N3CCC([C@@H](O)c4ccccc4-c4ccc(Cl)cc4)CC3)cc2)cc1S(=O)(=O)C(F)(F)F [AZD4320] + Cn1cnc2c(F)c(Nc3ccc(Br)cc3Cl)c(C(=O)NOCCO)cc21 [Selumetinib] (first compound max 1 µM, 7x7, partner max 3 µM)
Bliss excess [1]: -0.0112
Bliss excess [2]: -0.0611
Bliss excess [3]: 0.0573
Bliss excess [4]: 0.0196
Bliss excess [5]: 0.0308
Bliss excess [6]: 0.0542
Bliss excess [7]: 0.03
Bliss excess [8]: 0.0507
Bliss excess [9]: 0.0178
Bliss excess [10]: 0.0503
Bliss excess [11]: 0.0547
Bliss excess [12]: -0.0273
combination Emax [13]: 0.749
combination Emax [14]: 0.975
combination Emax [15]: 0.834
combination Emax [16]: 0.365
combination Emax [17]: 0.606
combination Emax [18]: 0.999
combination Emax [19]: 0.952
combination Emax [20]: 0.983

NC1(C(=O)N[C@@H](CCO)c2ccc(Cl)cc2)CCN(c2ncnc3[nH]ccc23)CC1 [Capivasertib] + Cn1cnc2c(F)c(Nc3ccc(Br)cc3Cl)c(C(=O)NOCCO)cc21 [Selumetinib] (first compound max 10 µM, 7x7, partner max 10 µM)
Bliss excess [1]: 0.0344
Bliss excess [2]: 0.0055
Bliss excess [3]: 0.0898
Bliss excess [4]: 0.0905
Bliss excess [5]: -0.0176
Bliss excess [6]: -0.0493
Bliss excess [7]: 0.119
Bliss excess [8]: 0.0234
Bliss excess [9]: -0.0583
Bliss excess [10]: 0.0825
Bliss excess [11]: 0.0801
Bliss excess [12]: 0.0254
combination Emax [13]: 0.832
combination Emax [14]: 1
combination Emax [15]: 0.985
combination Emax [16]: 0.793
combination Emax [17]: 0.584
combination Emax [18]: 0.633
combination Emax [19]: 0.574
combination Emax [20]: 0.496

CC1(C)CCC(CN2CCN(c3ccc(C(=O)NS(=O)(=O)c4ccc(NCC5CCOCC5)c([N+](=O)[O-])c4)c(Oc4cnc5[nH]ccc5c4)c3)CC2)=C(c2ccc(Cl)cc2)C1 [Venetoclax] + COc1cc(Nc2ncc3c(n2)-c2ccc(Cl)cc2C(c2c(F)cccc2OC)=NC3)ccc1C(=O)O [Alisertib] (first compound max 1 µM, 7x7, partner max 10 µM)
Bliss excess [1]: 0.0294
Bliss excess [2]: -0.013
Bliss excess [3]: -0.0492
Bliss excess [4]: 0.0269
Bliss excess [5]: -0.0262
Bliss excess [6]: -0.0588
Bliss excess [7]: -0.0512
Bliss excess [8]: -0.0522
Bliss excess [9]: -0.0679
Bliss excess [10]: 0.0977
Bliss excess [11]: 0.024
Bliss excess [12]: 0.077
combination Emax [13]: 0.466
combination Emax [14]: 0.487
combination Emax [15]: 0.358
combination Emax [16]: 0.669
combination Emax [17]: 0.5
combination Emax [18]: 0.718
combination Emax [19]: 0.327
combination Emax [20]: 0.906

Cc1c2c(nn1C)CSCc1cc(n(C)n1)CSc1cc(c3ccccc3c1)OCCCc1c(C(=O)O)n(C)c3c-2c(Cl)ccc13 [AZD5991] + C[C@@H](Nc1cc(F)cc(F)c1)c1cc(C(=O)N(C)C)cc2c(=O)cc(N3CCOCC3)oc12 [AZD8186] (first compound max 1 µM, 7x7, partner max 3 µM)
Bliss excess [1]: -0.0124
Bliss excess [2]: -0.0131
Bliss excess [3]: -0.0042
Bliss excess [4]: 0.0051
Bliss excess [5]: 0.0217
Bliss excess [6]: -0.0611
Bliss excess [7]: -0.0449
Bliss excess [8]: 0.0131
Bliss excess [9]: -0.0253
Bliss excess [10]: -0.0343
Bliss excess [11]: 0.0033
Bliss excess [12]: -0.0328
combination Emax [13]: 0.289
combination Emax [14]: 0.251
combination Emax [15]: 0.901
combination Emax [16]: 0.357
combination Emax [17]: 0.165
combination Emax [18]: 0.888
combination Emax [19]: 0.652
combination Emax [20]: 0.659

Cn1cnc2c(F)c(Nc3ccc(Br)cc3Cl)c(C(=O)NOCCO)cc21 [Selumetinib] + CC(C)n1c(=O)n(C)c2cnc3cc(F)c(-c4ccc(OCCCN5CCCCC5)nc4)cc3c21 [AZD1390] (first compound max 10 µM, 7x7, partner max 0.3 µM)
Bliss excess [1]: -0.0271
Bliss excess [2]: -0.0318
Bliss excess [3]: -0.0023
Bliss excess [4]: -0.0244
Bliss excess [5]: -0.0392
Bliss excess [6]: -0.0204
Bliss excess [7]: -0.0513
Bliss excess [8]: -0.0087
Bliss excess [9]: -0.0292
Bliss excess [10]: 0.0164
Bliss excess [11]: -0.0404
Bliss excess [12]: -0.0207
combination Emax [13]: 0.684
combination Emax [14]: 0.948
combination Emax [15]: 0.734
combination Emax [16]: 0.305
combination Emax [17]: 0.405
combination Emax [18]: 0.0871
combination Emax [19]: 0.384
combination Emax [20]: 0.224

COc1nnc2ccc(N3CCC(c4ccc(OCCN5CCN(C)C(=O)[C@H]5C)cc4)CC3)nn12 [AZD5153] + Cn1cnc2c(F)c(Nc3ccc(Br)cc3Cl)c(C(=O)NOCCO)cc21 [Selumetinib] (first compound max 1 µM, 7x7, partner max 10 µM)
Bliss excess [1]: 0.0241
Bliss excess [2]: 0.0098
Bliss excess [3]: -0.036
Bliss excess [4]: 0.0709
Bliss excess [5]: 0.0276
Bliss excess [6]: -0.0391
Bliss excess [7]: -0.0169
Bliss excess [8]: 0.0113
Bliss excess [9]: -0.0158
Bliss excess [10]: 0.0301
Bliss excess [11]: 0.001
Bliss excess [12]: 0.0017
combination Emax [13]: 0.868
combination Emax [14]: 1
combination Emax [15]: 0.864
combination Emax [16]: 0.689
combination Emax [17]: 0.716
combination Emax [18]: 0.774
combination Emax [19]: 0.71
combination Emax [20]: 0.752

COc1nnc2ccc(N3CCC(c4ccc(OCCN5CCN(C)C(=O)[C@H]5C)cc4)CC3)nn12 [AZD5153] + C=CCn1c(=O)c2cnc(Nc3ccc(N4CCN(C)CC4)cc3)nc2n1-c1cccc(C(C)(C)O)n1 [AZD1775] (first compound max 1 µM, partner max 1 µM)
Bliss excess [1]: -0.0212
Bliss excess [2]: -0.0494
Bliss excess [3]: -0.048
Bliss excess [4]: -0.0426
Bliss excess [5]: -0.0104
Bliss excess [6]: -0.0858
Bliss excess [7]: -0.0371
Bliss excess [8]: 0.0179
Bliss excess [9]: 0.0244
Bliss excess [10]: -0.0449
Bliss excess [11]: -0.015
Bliss excess [12]: -0.0084
combination Emax [13]: 0.637
combination Emax [14]: 0.354
combination Emax [15]: 0.651
combination Emax [16]: 0.671
combination Emax [17]: 0.703
combination Emax [18]: 1
combination Emax [19]: 0.737
combination Emax [20]: 0.783
